This note sets out measurements from PubChem BioAssay AID2060345 (Molecular Pharmacology Branch, DTP, NCI, 2025).

As usually defined, the IC50 is the midpoint of a concentration-inhibition curve. The term viability, T/C denotes the ratio of treated to control.

Several values for one entry are separate records, joined by “and”; a condition that tells them apart may be missing. Equal values may be shown once. Bounds are passed on as bounds.

The experiment has as its system MALME-3M multicell spheroids, viability. As to the kind of experiment: Anticancer human tumor MALME-3M cell line growth inhibition [TAK].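 For all read-outs here: spheroids exposed to drugs for seven days before readout.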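 For viability, T/C: 100% = DMSO vehicle control viability.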 The settings on record: for viability, T/C: stronger effect = lower value. The method, boiled down: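 Spheroids of 60% malignant cells, 25% HUVEC and 15% hMSC were exposed to targeted agents combined with TAK-243 or ipatasertib. Concentrations started at or near clinical Cmax (10 microM if unknown) and descended in half-log steps.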

Consider `COC1CC2CCC(C)C(O)(O2)C(=O)C(=O)N2CCCCC2C(=O)OC(C(C)CC2CCC(OCCO)C(OC)C2)CC(=O)C(C)C=C(C)C(O)C(OC)C(=O)C(C)CC(C)C=CC=CC=C1C` (configuration not stated) + CC(C)NCC(C(=O)N1CCN(c2ncnc3c2C(C)CC3O)CC1)c1ccc(Cl)cc1, for which the IC50 (curve of first compound, second compound 0.3 µM) was greater than 100 nM; the concentration for half-maximal inhibition (IC50) (curve of first compound, second compound 0.949 µM) was 8.97 nM; the IC50 (curve of first compound, second compound 3 µM) turned out to be 1.51 nM; the 50% inhibitory concentration (IC50) (curve of first compound, second compound 9.49 µM) was determined as 0.42 nM; the IC50 (curve of first compound, second compound 30 µM) is less than 0.316 nM. Also, the viability, T/C by setting is: (second compound 0.3 µM, first compound 0.000316 µM) 87.7%; (second compound 0.3 µM, first compound 0.001 µM) 69.2%; (second compound 0.3 µM, first compound 0.00316 µM) 64.3%; (second compound 0.3 µM, first compound 0.01 µM) 55.7%; (second compound 0.3 µM, first compound 0.0316 µM) 53.8%; (second compound 0.3 µM, first compound 0.1 µM) 51.3%. The viability, T/C by setting is: (second compound 0.949 µM, first compound 0.000316 µM) 89.9%; (second compound 0.949 µM, first compound 0.001 µM) 71.5%; (second compound 0.949 µM, first compound 0.00316 µM) 49.9%; (second compound 0.949 µM, first compound 0.01 µM) 51.8%; (second compound 0.949 µM, first compound 0.0316 µM) 50%; (second compound 0.949 µM, first compound 0.1 µM) 42.4%. The viability, T/C was 70.5% (second compound 3 µM, first compound 0.000316 µM); 55.4% (second compound 3 µM, first compound 0.001 µM); 40.7% (second compound 3 µM, first compound 0.00316 µM); 32.1% (second compound 3 µM, first compound 0.01 µM); 38% (second compound 3 µM, first compound 0.0316 µM); 29.5% (second compound 3 µM, first compound 0.1 µM). For the same compound, the viability, T/C runs as follows: (second compound 9.49 µM, first compound 0.000316 µM) 54.4%; (second compound 9.49 µM, first compound 0.001 µM) 37.1%; (second compound 9.49 µM, first compound 0.00316 µM) 26%; (second compound 9.49 µM, first compound 0.01 µM) 26.4%; (second compound 9.49 µM, first compound 0.0316 µM) 23.6%; (second compound 9.49 µM, first compound 0.1 µM) 21.8%. Moreover, the viability, T/C is 36.2% (second compound 30 µM, first compound 0.000316 µM); 32.8% (second compound 30 µM, first compound 0.001 µM); 20.7% (second compound 30 µM, first compound 0.00316 µM); 22.1% (second compound 30 µM, first compound 0.01 µM); 19.9% (second compound 30 µM, first compound 0.0316 µM); 19.1% (second compound 30 µM, first compound 0.1 µM).

With `CC(C)n1nc(-c2ccc3oc(N)nc3c2)c2c(N)ncnc21`, the viability, T/C runs as follows: (compound 0.000316 µM) 78.4% and 94.5%; (compound 0.001 µM) 64.4% and 88.7%; (compound 0.00316 µM) 63% and 77.5%; (compound 0.01 µM) 47.5% and 70.1%; (compound 0.0316 µM) 28.3% and 33%; (compound 0.1 µM) 10.5% and 13.6%. Besides, the half-inhibitory concentration (IC50) (curve of compound) is 7.44 nM and 18.1 nM.
